Assays:
Assay type in all cases: cell-based
human TLR9 = human TLR9 (Homo sapiens (Human), UniProt Q9NR96); experiment: TLR9 inhibition reporter assay (HEK-Blue, SEAP); conditions: HEK-Blue cells overexpressing human TLR9, ODN2006 5 nM stimulation
Summary of the method: (§1)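 After 30 min room-temperature pre-incubation with compound (0.05 nM–50 μM), reporter HEK-Blue lines were activated by ODN2006 5 nM for TLR9, R848 15.9 μM for TLR8 or gardiquimod 7.5 μM for TLR7. SEAP detected after 22 h, 37 °C; inhibition scaled between agonist+DMSO wells and known-inhibitor control.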

human TLR7 = human TLR7 (Homo sapiens (Human), UniProt Q9NYK1); experiment: TLR7 inhibition reporter assay (HEK-Blue, SEAP); conditions: HEK-Blue cells overexpressing human TLR7, gardiquimod 7.5 μM stimulation
Chain of human TLR7 (Q9NYK1 27-1049): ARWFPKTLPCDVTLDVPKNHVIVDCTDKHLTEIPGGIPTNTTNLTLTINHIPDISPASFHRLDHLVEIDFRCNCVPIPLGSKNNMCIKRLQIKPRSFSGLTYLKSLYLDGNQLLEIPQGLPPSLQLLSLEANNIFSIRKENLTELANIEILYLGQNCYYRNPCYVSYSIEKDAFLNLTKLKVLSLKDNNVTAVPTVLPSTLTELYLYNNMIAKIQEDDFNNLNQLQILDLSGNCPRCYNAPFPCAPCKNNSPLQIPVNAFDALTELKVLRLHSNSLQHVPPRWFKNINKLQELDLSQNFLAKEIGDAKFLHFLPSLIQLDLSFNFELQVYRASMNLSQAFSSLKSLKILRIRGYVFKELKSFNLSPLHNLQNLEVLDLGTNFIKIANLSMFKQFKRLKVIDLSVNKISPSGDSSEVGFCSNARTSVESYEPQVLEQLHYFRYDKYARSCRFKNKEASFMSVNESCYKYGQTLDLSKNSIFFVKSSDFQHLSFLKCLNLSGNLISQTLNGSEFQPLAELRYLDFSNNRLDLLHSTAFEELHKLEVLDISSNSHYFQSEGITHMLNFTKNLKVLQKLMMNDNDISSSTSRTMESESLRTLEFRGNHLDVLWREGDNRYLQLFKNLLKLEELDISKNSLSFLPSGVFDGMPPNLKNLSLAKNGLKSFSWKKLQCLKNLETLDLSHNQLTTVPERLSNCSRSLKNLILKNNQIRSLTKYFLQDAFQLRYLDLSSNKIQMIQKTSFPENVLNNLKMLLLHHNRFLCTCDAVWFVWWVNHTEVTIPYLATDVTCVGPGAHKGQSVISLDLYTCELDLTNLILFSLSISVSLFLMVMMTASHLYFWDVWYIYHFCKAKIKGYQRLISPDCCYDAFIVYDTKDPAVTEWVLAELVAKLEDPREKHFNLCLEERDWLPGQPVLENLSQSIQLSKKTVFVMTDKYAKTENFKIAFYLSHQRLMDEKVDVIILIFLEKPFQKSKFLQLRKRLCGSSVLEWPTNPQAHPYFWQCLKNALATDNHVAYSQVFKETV
Summary of the method: as §1

human TLR8 = human TLR8 (Homo sapiens (Human), UniProt Q9NR97); experiment: TLR8 inhibition reporter assay (HEK-Blue, SEAP); conditions: HEK-Blue cells overexpressing human TLR8, R848 15.9 μM stimulation
Chain of human TLR8 (Q9NR97 27-1041): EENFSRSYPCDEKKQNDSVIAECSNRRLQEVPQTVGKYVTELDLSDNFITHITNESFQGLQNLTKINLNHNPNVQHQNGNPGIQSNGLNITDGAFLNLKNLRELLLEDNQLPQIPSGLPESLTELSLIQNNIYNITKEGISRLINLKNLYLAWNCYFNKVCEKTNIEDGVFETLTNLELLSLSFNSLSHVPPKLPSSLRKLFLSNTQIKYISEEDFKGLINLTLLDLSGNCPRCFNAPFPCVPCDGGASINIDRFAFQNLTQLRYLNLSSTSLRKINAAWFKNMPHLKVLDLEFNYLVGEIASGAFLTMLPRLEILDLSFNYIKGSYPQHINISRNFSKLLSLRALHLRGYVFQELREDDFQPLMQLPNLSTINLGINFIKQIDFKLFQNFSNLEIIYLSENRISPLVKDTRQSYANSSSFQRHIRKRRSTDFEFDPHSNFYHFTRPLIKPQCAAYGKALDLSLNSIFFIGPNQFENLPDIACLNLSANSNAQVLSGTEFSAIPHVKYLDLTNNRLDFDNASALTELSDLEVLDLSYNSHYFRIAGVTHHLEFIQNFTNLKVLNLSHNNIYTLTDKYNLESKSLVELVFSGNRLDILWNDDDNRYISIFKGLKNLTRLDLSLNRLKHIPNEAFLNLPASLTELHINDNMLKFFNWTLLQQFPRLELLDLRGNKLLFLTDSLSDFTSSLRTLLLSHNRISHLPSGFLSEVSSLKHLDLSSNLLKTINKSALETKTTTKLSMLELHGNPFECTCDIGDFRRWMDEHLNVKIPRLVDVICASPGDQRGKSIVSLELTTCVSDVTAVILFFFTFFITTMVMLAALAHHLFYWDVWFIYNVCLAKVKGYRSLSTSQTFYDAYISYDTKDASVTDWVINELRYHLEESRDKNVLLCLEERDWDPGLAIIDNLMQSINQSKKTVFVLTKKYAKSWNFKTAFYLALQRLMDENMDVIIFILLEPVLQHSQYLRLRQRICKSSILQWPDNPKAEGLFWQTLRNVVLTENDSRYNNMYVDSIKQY
Summary of the method: as §1

Chain of human TLR9 (Q9NR96 26-1032): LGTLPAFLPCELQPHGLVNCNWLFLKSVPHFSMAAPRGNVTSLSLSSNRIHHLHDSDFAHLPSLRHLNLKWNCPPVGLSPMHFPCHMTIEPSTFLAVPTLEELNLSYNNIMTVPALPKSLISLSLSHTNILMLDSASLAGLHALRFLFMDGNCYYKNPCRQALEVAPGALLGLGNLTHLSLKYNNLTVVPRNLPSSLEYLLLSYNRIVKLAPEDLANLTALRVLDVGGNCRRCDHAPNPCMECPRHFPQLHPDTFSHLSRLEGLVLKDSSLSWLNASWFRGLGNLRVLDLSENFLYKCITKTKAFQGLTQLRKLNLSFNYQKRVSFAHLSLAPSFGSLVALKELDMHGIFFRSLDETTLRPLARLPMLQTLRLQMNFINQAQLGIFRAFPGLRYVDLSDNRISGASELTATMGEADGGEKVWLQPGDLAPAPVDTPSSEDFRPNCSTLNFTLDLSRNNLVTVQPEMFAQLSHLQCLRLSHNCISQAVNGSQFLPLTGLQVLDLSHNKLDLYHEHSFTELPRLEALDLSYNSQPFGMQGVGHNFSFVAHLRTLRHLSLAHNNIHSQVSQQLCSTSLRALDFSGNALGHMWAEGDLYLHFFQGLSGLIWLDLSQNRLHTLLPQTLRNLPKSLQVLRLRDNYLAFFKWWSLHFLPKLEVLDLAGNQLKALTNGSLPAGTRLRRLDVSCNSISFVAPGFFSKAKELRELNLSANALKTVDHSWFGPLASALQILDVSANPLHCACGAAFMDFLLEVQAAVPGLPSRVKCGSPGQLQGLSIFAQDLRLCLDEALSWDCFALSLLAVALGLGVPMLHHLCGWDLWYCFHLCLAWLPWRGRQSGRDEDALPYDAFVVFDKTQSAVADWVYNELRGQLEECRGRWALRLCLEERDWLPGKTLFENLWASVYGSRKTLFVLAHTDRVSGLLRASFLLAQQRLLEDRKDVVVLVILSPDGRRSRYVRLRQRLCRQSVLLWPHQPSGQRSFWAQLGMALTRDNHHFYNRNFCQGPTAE

Compound	IC50 (human TLR9) [nM]	IC50 (human TLR7) [nM]	IC50 (human TLR8) [nM]
CNC(=O)CN1CCC(c2nnc(-c3ccc4[nH]c(-c5ccnc6[nH]ncc56)c(C(C)C)c4c3)o2)CC1 [Example 88, 2-(4-(5-(3-isopropyl-2-(1H-pyrazolo[3,4-b]pyridin-4-yl)-1H-indol-5-yl)-1,3,4-oxadiazol-2-yl)piperidin-1-yl)-N-methylacetamide]	4760	294	10
CCN(CC)C(=O)C1CCCN(C(=O)c2nnc(-c3ccc4[nH]c(-c5ccc(OC)c(OC)c5)c(C(C)C)c4c3)o2)C1 (stereo not drawn) [Example 89, 1-(5-(2-(3,4-dimethoxyphenyl)-3-isopropyl-1H-indol-5-yl)-1,3,4-oxadiazole-2-carbonyl)-N,N-diethylpiperidine-3-carboxamide]	9640	1490	217
COc1ccc(-c2[nH]c3ccc(-c4nnc(C(=O)NCCN(C)C)o4)cc3c2C(C)C)cc1OC [Example 90, 5-(2-(3,4-dimethoxyphenyl)-3-isopropyl-1H-indol-5-yl)-N-(2-(dimethylamino)ethyl)-1,3,4-oxadiazole-2-carboxamide]	802	30	4
COc1ccc(-c2[nH]c3ccc(-c4nnc(C(=O)N5CCC(O)CC5)o4)cc3c2C(C)C)cc1OC [Example 91, (5-(2-(3,4-dimethoxyphenyl)-3-isopropyl-1H-indol-5-yl)-1,3,4-oxadiazol-2-yl)(4-hydroxypiperidin-1-yl)methanone]	> 50000	348	111
COc1ccc(-c2[nH]c3ccc(-c4nnc(C(=O)N5CCN(C(C)=O)CC5)o4)cc3c2C(C)C)cc1OC [Example 92, 1-(4-(5-(2-(3,4-dimethoxyphenyl)-3-isopropyl-1H-indol-5-yl)-1,3,4-oxadiazole-2-carbonyl)piperazin-1-yl)ethan-1-one]	26300	561	109
COc1ccc(-c2[nH]c3ccc(-c4nnc(C(=O)N5CCCN(C)CC5)o4)cc3c2C(C)C)cc1OC [Example 93, (5-(2-(3,4-dimethoxyphenyl)-3-isopropyl-1H-indol-5-yl)-1,3,4-oxadiazol-2-yl)(4-methyl-1,4-diazepan-1-yl)methanone]	2020	86	15
COc1ccc(-c2[nH]c3ccc(-c4nnc(C(=O)N(C)CCc5ccccn5)o4)cc3c2C(C)C)cc1OC [Example 94, 5-(2-(3,4-dimethoxyphenyl)-3-isopropyl-1H-indol-5-yl)-N-methyl-N-(2-(pyridin-2-yl)ethyl)-1,3,4-oxadiazole-2-carboxamide]	13100	181	222
COc1ccc(-c2[nH]c3ccc(-c4nnc(C(=O)N5CCC(N6CCCC6)CC5)o4)cc3c2C(C)C)cc1OC [Example 95, (5-(2-(3,4-dimethoxyphenyl)-3-isopropyl-1H-indol-5-yl)-1,3,4-oxadiazol-2-yl)(4-(pyrrolidin-1-yl)piperidin-1-yl)methanone]	1400	99	21
COc1ccc(-c2[nH]c3ccc(-c4nnc(C(=O)N(C)CCCN(C)C)o4)cc3c2C(C)C)cc1OC [Example 96, 5-(2-(3,4-dimethoxyphenyl)-3-isopropyl-1H-indol-5-yl)-N-(3-(dimethylamino)propyl)-N-methyl-1,3,4-oxadiazole-2-carboxamide]	1220	49	4.6
COc1ccc(-c2[nH]c3ccc(-c4nnc(C(=O)N5CCN(c6cnccn6)CC5)o4)cc3c2C(C)C)cc1OC [Example 97, (5-(2-(3,4-dimethoxyphenyl)-3-isopropyl-1H-indol-5-yl)-1,3,4-oxadiazol-2-yl)(4-(pyrazin-2-yl)piperazin-1-yl)methanone]	> 50000	936	239
COc1ccc(-c2[nH]c3ccc(-c4nnc(C(=O)N5CC[C@H](N(C)C)C5)o4)cc3c2C(C)C)cc1OC [Example 98, (S)-(5-(2-(3,4-dimethoxyphenyl)-3-isopropyl-1H-indol-5-yl)-1,3,4-oxadiazol-2-yl)(3-(dimethylamino)pyrrolidin-1-yl)methanone]	2660	68	17
COc1ccc(-c2[nH]c3ccc(-c4nnc(C(=O)N5CCC(N6CCOCC6)C5)o4)cc3c2C(C)C)cc1OC (stereo not drawn) [Example 99, (5-(2-(3,4-dimethoxyphenyl)-3-isopropyl-1H-indol-5-yl)-1,3,4-oxadiazol-2-yl)(3-morpholinopyrrolidin-1-yl)methanone]	16300	565	86
COc1ccc(-c2[nH]c3ccc(-c4nnc(C(=O)NCCNC(C)=O)o4)cc3c2C(C)C)cc1OC [Example 100, N-(2-acetamidoethyl)-5-(2-(3,4-dimethoxyphenyl)-3-isopropyl-1H-indol-5-yl)-1,3,4-oxadiazole-2-carboxamide]	> 50000	844	31
COc1ccc(-c2[nH]c3ccc(-c4nnc(C(=O)NCCCn5ccnc5)o4)cc3c2C(C)C)cc1OC [Example 101, N-(3-(1H-imidazol-1-yl)propyl)-5-(2-(3,4-dimethoxyphenyl)-3-isopropyl-1H-indol-5-yl)-1,3,4-oxadiazole-2-carboxamide]	3290	55	14
CC(C)c1c(-c2ccnc3[nH]ncc23)[nH]c2ccc(-c3nnc(C4CCNCC4)o3)cc12 [Example 102, 2-(3-isopropyl-2-(1H-pyrazolo[3,4-b]pyridin-4-yl)-1H-indol-5-yl)-5-(piperidin-4-yl)-1,3,4-oxadiazole]	611	125	11
CC(C)c1c(-c2ccnc3[nH]ncc23)[nH]c2ccc(-c3nnc([C@@H]4CCCNC4)o3)cc12 [Example 103, (R)-2-(3-isopropyl-2-(1H-pyrazolo[3,4-b]pyridin-4-yl)-1H-indol-5-yl)-5-(piperidin-3-yl)-1,3,4-oxadiazole]	166	54	5.4
CC(C)c1c(-c2ccnc3[nH]ncc23)[nH]c2ccc(-c3nnc(C[C@@H]4CCCN4)o3)cc12 [Example 104, (S)-2-(3-isopropyl-2-(1H-pyrazolo[3,4-b]pyridin-4-yl)-1H-indol-5-yl)-5-(pyrrolidin-2-ylmethyl)-1,3,4-oxadiazole]	150	31	1.7
COc1ccc(-c2[nH]c3ccc(-c4nnc(N5CCNCC5)o4)cc3c2C(C)C)cc1OC [Example 105, 2-(2-(3,4-dimethoxyphenyl)-3-isopropyl-1H-indol-5-yl)-5-(piperazin-1-yl)-1,3,4-oxadiazole]	1070	19	8.8
COc1ccc(-c2[nH]c3ccc(-c4nnc(C5CCN(Cc6ccccc6)CC5)[nH]4)cc3c2C(C)C)cc1OC [Example 106, 5-(5-(1-benzylpiperidin-4-yl)-4H-1,2,4-triazol-3-yl)-2-(3,4-dimethoxyphenyl)-3-isopropyl-1H-indole]	1710	138	45
COc1ccc(-c2[nH]c3ccc(-c4nnc(CN5CC6CNCC6C5)o4)cc3c2C(C)C)cc1OC (stereo not drawn) [Example 107, 2-(2-(3,4-dimethoxyphenyl)-3-isopropyl-1H-indol-5-yl)-5-((hexahydropyrrolo[3,4-c]pyrrol-2(1H)-yl)methyl)-1,3,4-oxadiazole]	2210	228	23
COc1ccc(-c2[nH]c3ccc(-c4nnc(CNCCNC(C)=O)o4)cc3c2C(C)C)cc1OC [Example 108, N-(2-(((5-(2-(3,4-dimethoxyphenyl)-3-isopropyl-1H-indol-5-yl)-1,3,4-oxadiazol-2-yl)methyl)amino)ethyl)acetamide]	> 50000	1980	220
COCCNCc1nnc(-c2ccc3[nH]c(-c4ccc(OC)c(OC)c4)c(C(C)C)c3c2)o1 [Example 109, N-((5-(2-(3,4-dimethoxyphenyl)-3-isopropyl-1H-indol-5-yl)-1,3,4-oxadiazol-2-yl)methyl)-2-methoxyethan-1-amine]	> 50000	4160	301
C#CCNCc1nnc(-c2ccc3[nH]c(-c4ccc(OC)c(OC)c4)c(C(C)C)c3c2)o1 [Example 110, N-((5-(2-(3,4-dimethoxyphenyl)-3-isopropyl-1H-indol-5-yl)-1,3,4-oxadiazol-2-yl)methyl)prop-2-yn-1-amine]	> 50000	917	734
CCOCCNCc1nnc(-c2ccc3[nH]c(-c4ccc(OC)c(OC)c4)c(C(C)C)c3c2)o1 [Example 111, N-((5-(2-(3,4-dimethoxyphenyl)-3-isopropyl-1H-indol-5-yl)-1,3,4-oxadiazol-2-yl)methyl)-2-ethoxyethan-1-amine]	> 50000	157	266
COc1ccc(-c2[nH]c3ccc(-c4nnc(CNCCOCCO)o4)cc3c2C(C)C)cc1OC [Example 112, 2-(2-(((5-(2-(3,4-dimethoxyphenyl)-3-isopropyl-1H-indol-5-yl)-1,3,4-oxadiazol-2-yl)methyl)amino)ethoxy)ethan-1-ol]	> 50000	38	82
COc1ccc(-c2[nH]c3ccc(-c4nnc(CNCCS(=O)(=O)O)o4)cc3c2C(C)C)cc1OC [Example 113, 2-(((5-(2-(3,4-dimethoxyphenyl)-3-isopropyl-1H-indol-5-yl)-1,3,4-oxadiazol-2-yl)methyl)amino)ethane-1-sulfonic acid]	> 50000	219	222

— patent US11420958B2, “Aryl and heteroaryl substituted indole compounds” (BRISTOL-MYERS SQUIBB COMPANY, priority 2017, dated 2022)
